Data taken from ChEMBL document CHEMBL4024791, “Identification of Morpholino-2H-pyrido[3,2-b][1,4]oxazin-3(4H)-ones as Nonsteroidal Mineralocorticoid Antagonists” (J Med Chem, 2018).
≈ marks a conversion by molar mass, not a printed value.

Columns and labels:
[1] = Thermodynamic solubility of the compound in phosphate buffered saline at pH 6.5; type: physicochemical; conditions: read-out: Therm_solubility
[2] = AUC in Wistar rat at 100 mg/kg, po administered as single dose measured up to 8 hrs post dose by LC-MS analysis; type: ADME, organism-based; set-up: dose 100 mg/kg, time < 8 hr, route oral; conditions: in vivo
Salmonella typhimurium = assay: Genotoxicity in Salmonella typhimurium by Ames test; type: toxicity; conditions: salmonella enterica subsp. enterica serovar typhimurium
[3] = target: T1, Mineralocorticoid receptor (Rattus norvegicus, UniProt P22199); assay: Antagonist activity at rat GAL4-DBD fused MR ligand binding domain transfected in human Huh7 cells co-expressing GAL4-RE-Luc assessed as reduction in aldosterone-induced luciferase activity after 16 hrs in serum free condition by luciferase reporter gene assay; type: cell-based
T1 sequence (P22199 whole entry): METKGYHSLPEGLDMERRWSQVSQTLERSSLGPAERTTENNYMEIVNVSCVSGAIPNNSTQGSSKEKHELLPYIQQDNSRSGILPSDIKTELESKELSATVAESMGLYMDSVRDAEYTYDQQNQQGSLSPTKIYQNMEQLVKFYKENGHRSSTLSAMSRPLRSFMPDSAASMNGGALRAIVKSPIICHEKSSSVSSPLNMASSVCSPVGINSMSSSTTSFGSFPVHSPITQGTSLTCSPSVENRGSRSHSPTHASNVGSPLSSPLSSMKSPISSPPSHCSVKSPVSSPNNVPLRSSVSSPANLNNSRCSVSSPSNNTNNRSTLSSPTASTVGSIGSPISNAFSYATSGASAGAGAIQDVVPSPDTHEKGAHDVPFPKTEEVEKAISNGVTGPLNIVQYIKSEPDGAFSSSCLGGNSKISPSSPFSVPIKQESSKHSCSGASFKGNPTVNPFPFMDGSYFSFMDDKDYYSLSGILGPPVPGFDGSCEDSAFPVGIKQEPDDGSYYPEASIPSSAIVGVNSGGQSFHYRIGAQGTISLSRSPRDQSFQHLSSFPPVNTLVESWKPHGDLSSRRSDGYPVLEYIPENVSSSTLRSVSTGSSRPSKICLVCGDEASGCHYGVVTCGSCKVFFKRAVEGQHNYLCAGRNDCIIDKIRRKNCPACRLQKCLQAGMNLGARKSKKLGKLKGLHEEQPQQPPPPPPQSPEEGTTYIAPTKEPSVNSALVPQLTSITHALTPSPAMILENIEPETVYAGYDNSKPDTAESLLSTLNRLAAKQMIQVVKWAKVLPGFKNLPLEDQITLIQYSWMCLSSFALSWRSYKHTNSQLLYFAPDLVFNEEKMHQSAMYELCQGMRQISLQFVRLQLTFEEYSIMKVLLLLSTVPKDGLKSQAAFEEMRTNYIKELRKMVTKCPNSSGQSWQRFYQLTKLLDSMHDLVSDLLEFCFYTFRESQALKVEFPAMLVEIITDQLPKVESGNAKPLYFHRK

[4] = target: T2, Mineralocorticoid receptor (Homo sapiens, UniProt P08235)
T2 sequence (P08235 whole entry): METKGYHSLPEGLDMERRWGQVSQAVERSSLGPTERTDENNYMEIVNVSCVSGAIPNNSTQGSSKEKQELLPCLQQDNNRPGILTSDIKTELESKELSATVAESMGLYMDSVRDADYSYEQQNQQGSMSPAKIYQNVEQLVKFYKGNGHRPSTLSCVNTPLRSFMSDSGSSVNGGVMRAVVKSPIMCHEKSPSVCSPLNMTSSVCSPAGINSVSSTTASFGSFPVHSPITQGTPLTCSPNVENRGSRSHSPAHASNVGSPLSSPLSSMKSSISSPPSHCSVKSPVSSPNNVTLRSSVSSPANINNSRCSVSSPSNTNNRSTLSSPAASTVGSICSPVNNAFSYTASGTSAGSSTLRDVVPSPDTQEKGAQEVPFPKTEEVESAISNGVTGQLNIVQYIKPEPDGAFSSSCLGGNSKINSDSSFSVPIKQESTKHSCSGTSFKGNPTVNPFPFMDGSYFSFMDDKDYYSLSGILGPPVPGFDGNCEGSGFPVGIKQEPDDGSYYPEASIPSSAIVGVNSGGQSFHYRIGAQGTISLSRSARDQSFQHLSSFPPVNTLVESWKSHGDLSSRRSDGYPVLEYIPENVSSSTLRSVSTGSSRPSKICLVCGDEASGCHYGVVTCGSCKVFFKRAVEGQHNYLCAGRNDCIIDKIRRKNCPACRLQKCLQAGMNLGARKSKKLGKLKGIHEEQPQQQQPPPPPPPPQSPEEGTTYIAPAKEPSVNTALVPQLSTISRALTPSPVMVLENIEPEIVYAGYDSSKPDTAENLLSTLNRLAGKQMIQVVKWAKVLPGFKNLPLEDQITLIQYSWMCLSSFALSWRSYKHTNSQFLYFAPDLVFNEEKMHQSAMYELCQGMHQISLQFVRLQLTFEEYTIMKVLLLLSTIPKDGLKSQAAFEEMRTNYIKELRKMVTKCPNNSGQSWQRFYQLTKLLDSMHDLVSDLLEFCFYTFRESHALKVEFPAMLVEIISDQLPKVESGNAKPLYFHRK
Description: Displacement of [3H]-aldosterone from human GST-tagged MR ligand binding domain after 4 hrs by liquid scintillation counting

[5] = Intrinsic clearance in human liver microsomes

Row | solubility thermodynamic [1] [µM] | AUC at 8 h [2] [ng·h/mL] | IC50 [3] [nM] | IC50 [4] [nM] | microsomal CLint [5] [µL/min/mg] | SMILES | Activity (Salmonella typhimurium)
1 | 17 (≈ 5.53 µg/mL) | 9410 | 3.2 |  |  | C[C@@H]1CN(c2ccc3c(n2)NC(=O)CO3)[C@H](c2ccccc2)CO1 | Non-Toxic
2 |  |  |  | 401 | 18.3 | O=C1COc2ccc(N3CCOC[C@H]3c3ccccc3)cc2N1 | 
